Data: patent US9266830B2, “Pesticidal arylpyrrolidines” (Bayer Intellectual Property GmbH, priority 2007, dated 2016)

Tests used:
[1] = tested on: Amblyomma hebraeum; assay: Amblyomma hebraeum test (AMBYHE), nymph immersion; type: in vivo; settings: for activity (mortality in %): application rate 100 ppm, nymphs, after 42 days
Protocol: (§1) Solvent: dimethyl sulfoxide
To produce a suitable preparation of active compound, 10 mg of active compound are dissolved in 0.5 ml solvent, and the concentrate is diluted with water to the desired concentration. Nymphs of the tick Amblyomma hebraeum are placed in perforated plastic beakers and immersed in aqueous compound solution for one minute. Ticks are transferred to a filter paper in a Petri dish and incubated in a climate chamber for 42 days.
After 42 days mortality in % is determined 100% means that all the ticks have been killed; 0% means that none of the ticks have been killed.

[2] = tested on: Boophilus microplus; assay: Boophilus microplus test (injection); type: in vivo; settings: application rate 20 μg/animal, adult engorged females, after 7 days
Protocol: as §1
To produce a suitable preparation of active compound, 10 mg of active compound are dissolved in 0.5 ml solvent, and the concentrate is diluted with solvent to the desired concentration. Five adult engorged female ticks (Boophilus microplus) are injected with compound solution into the abdomen. Ticks are transferred into replica plates and incubated in a climate chamber for a period of time. Egg deposition of fertile eggs is monitored. After 7 days mortality in % is determined 100% means that all eggs are infertile; 0% means that all eggs are fertile.

SMILES | activity (100% means that all eggs are infertile) [2] | further results
CCC(=O)NCc1ccc(N2CCC(c3cc(C(F)(F)F)cc(C(F)(F)F)c3)(C(F)(F)F)C2)cc1Cl (centres unmarked) [1-307] | 100% | activity (mortality in %) [1]: 80%
CSCCC(=O)NCc1ccc(N2CCC(c3cc(Cl)cc(Cl)c3)(C(F)(F)F)C2)cc1C(F)(F)F (centres unmarked) [1-509] | 100% | activity (mortality in %) [1]: 90%
O=C(NCc1ccc(N2CCC(c3cc(C(F)(F)F)cc(C(F)(F)F)c3)(C(F)(F)F)C2)cc1Br)C1CC1 (centres unmarked) [1-313] | 100% | activity (mortality in %) [1]: 95%
C=CCS(=O)(=O)CC(=O)NCc1ccc(N2CCC(c3cc(Cl)c(Cl)c(Cl)c3)(C(F)(F)F)C2)cc1C(F)(F)F (centres unmarked) [1-734] | 100% | activity (mortality in %) [1]: 90%
CN(C)C(=O)NCc1ccc(N2CCC(c3cc(Cl)cc(Cl)c3)(C(F)(F)F)C2)cc1Cl (centres unmarked) [1-118] | 100% | activity (mortality in %) [1]: 90%
O=C(CC(F)(F)F)NCc1ccc(N2CCC(c3cc(C(F)(F)F)cc(C(F)(F)F)c3)(C(F)(F)F)C2)nc1C(F)(F)F (centres unmarked) [1-404] | 100% | activity (mortality in %) [1]: 85%
O=C(CC(F)(F)F)NCc1ccc(N2CCC(c3cc(Cl)c(Cl)c(Cl)c3)(C(F)(F)F)C2)cc1Cl (centres unmarked) [1-340] | 100% | activity (mortality in %) [1]: 80%
CCC(=O)NCc1ccc(N2CCC(c3cc(Cl)cc(Cl)c3)(C(F)(F)F)C2)cc1Br (centres unmarked) [3-5 according to WO2008/128711, reference compound] | – | Activity at 0.8 ppm ([1]; 0.8 ppm, comparison with WO2008/128711): 10%; Activity at 4 ppm ([1]; 4 ppm, comparison with WO2008/128711): 70%
N#CCC(=O)NCc1ccc(N2CCC(c3cc(Cl)cc(Cl)c3)(C(F)(F)F)C2)cc1C(F)(F)F (centres unmarked) [1-183] | 100% | –
C=CCNC(=O)NCc1ccc(N2CCC(c3cc(Cl)cc(Cl)c3)(C(F)(F)F)C2)cc1C(F)(F)F (centres unmarked) [1-230] | 100% | activity (mortality in %) [1]: 80%
O=C(NCc1ccc(N2CCC(c3cc(Cl)cc(Cl)c3)(C(F)(F)F)C2)cc1Cl)C1CC1(F)F (centres unmarked) [1-25] | 100% | –
O=C(NCc1ccccn1)c1sc(N2CCC(c3cc(Cl)c(Cl)c(Cl)c3)(C(F)(F)F)C2)nc1C(F)(F)F (centres unmarked) [4-22] | 100% | –
CCNC(=O)N(C)Cc1ccc(N2CCC(c3cc(Cl)cc(Cl)c3)(C(F)(F)F)C2)cc1Cl (centres unmarked) [1-113] | 100% | –
O=C(CC1CC1)NCc1ccc(N2CCC(c3cc(Cl)cc(Cl)c3)(C(F)(F)F)C2)cc1Cl (centres unmarked) [1-12] | 100% | –
O=C(NCc1ccccn1)NCc1ccc(N2CCC(c3cc(Cl)cc(Cl)c3)(C(F)(F)F)C2)cc1C(F)(F)F (centres unmarked) [1-254] | 100% | –
CC[S+]([O-])CC(=O)NCc1ccc(N2CCC(c3cc(Cl)cc(Cl)c3)(C(F)(F)F)C2)cc1C(F)(F)F (centres unmarked) [1-500] | 100% | –
C[S+]([O-])CC(=O)NCc1ccc(N2CCC(c3cc(Cl)cc(Cl)c3)(C(F)(F)F)C2)cc1C(F)(F)F (centres unmarked) [1-494] | 100% | –
N#Cc1ccc(N2CCC(c3cc(Cl)c(Cl)c(Cl)c3)(C(F)(F)F)C2)cc1C(F)(F)F (centres unmarked) [7-12] | 100% | –
CCNC(=O)NCc1cnc(N2CCC(c3cc(Cl)c(Cl)c(Cl)c3)(C(F)(F)F)C2)cc1C(F)(F)F (centres unmarked) [1-381] | 100% | –
O=C(NCc1ccc(N2CCC(c3cc(Cl)cc(Cl)c3)(C(F)(F)F)C2)cc1C(F)(F)F)C1CC1 (centres unmarked) [1-146] | 100% | –
O=C(NCc1ccccn1)c1cnc(N2CCC(c3cc(C(F)(F)F)cc(C(F)(F)F)c3)(C(F)(F)F)C2)nc1C(F)(F)F (centres unmarked) [2-35] | 100% | –
CCNC(=O)NCc1ccc(N2CCC(c3cc(Cl)c(Cl)c(Cl)c3)(C(F)(F)F)C2)cc1Cl (centres unmarked) [1-341] | 100% | –
FC(F)(F)C1(c2cc(Cl)cc(Cl)c2)CCN(c2ccc(CNC(=S)NC3CC3)c(Cl)c2)C1 (centres unmarked) [1-468] | 100% | –
CN(Cc1ccc(N2CCC(c3cc(Cl)cc(Cl)c3)(C(F)(F)F)C2)cc1Cl)C(=O)CC(F)(F)F (centres unmarked) [1-75] | 100% | –
C=CC(=O)NCc1ccc(N2CCC(c3cc(Cl)cc(Cl)c3)(C(F)(F)F)C2)cc1C(F)(F)F (centres unmarked) [1-173] | 100% | –
CC(Br)C(=O)NCc1ccc(N2CCC(c3cc(Cl)cc(Cl)c3)(C(F)(F)F)C2)cc1Cl (centres unmarked) [1-458] | 100% | –
C[S+]([O-])CC(=O)NCc1ccc(N2CCC(c3cc(C(F)(F)F)cc(C(F)(F)F)c3)(C(F)(F)F)C2)cc1C(F)(F)F (centres unmarked) [1-967] | 100% | –

SMILES | activity (100% means that all eggs are infertile) [2] | further results
C=CCSCC(=O)NCc1ccc(N2CCC(c3cc(Cl)cc(Cl)c3)(C(F)(F)F)C2)cc1C(F)(F)F (centres unmarked) [1-503] | 100% | –
O=C(NCC(F)(F)F)c1cnc(N2CCC(c3cc(C(F)(F)F)cc(C(F)(F)F)c3)(C(F)(F)F)C2)nc1C(F)(F)F (centres unmarked) [2-34] | 100% | –
COC(=O)NCc1ccc(N2CCC(c3cc(C(F)(F)F)cc(C(F)(F)F)c3)(C(F)(F)F)C2)cc1C(F)(F)F (centres unmarked) [1-298] | 100% | –
CC=CC(=O)NCc1ccc(N2CCC(c3cc(Cl)cc(Cl)c3)(C(F)(F)F)C2)cc1Cl (centres unmarked) [1-30] | 100% | –
O=C(NCc1cnc(N2CCC(c3cc(C(F)(F)F)cc(C(F)(F)F)c3)(C(F)(F)F)C2)nc1C(F)(F)F)C1CC1 (centres unmarked) [3-149] | 100% | –
O=C(CC1CC1)NCc1ccc(N2CCC(c3cc(Cl)cc(Cl)c3)(C(F)(F)F)C2)cc1C(F)(F)F (centres unmarked) [1-155] | 100% | –
C=CC[S+]([O-])CC(=O)NCc1ccc(N2CCC(c3cc(Cl)cc(Cl)c3)(C(F)(F)F)C2)cc1C(F)(F)F (centres unmarked) [1-504] | 100% | –
O=C(NCc1cnc(N2CCC(c3cc(Cl)c(Cl)c(Cl)c3)(C(F)(F)F)C2)nc1C(F)(F)F)C1CC1 (centres unmarked) [3-143] | 100% | –
CCC(=O)NCc1ccc(N2CCC(c3cc(Cl)c(Cl)c(Cl)c3)(C(F)(F)F)C2)cc1Br (centres unmarked) [1-345] | 100% | –
O=C(CC(F)(F)F)NCc1ccc(N2CCC(c3cc(Cl)c(Cl)c(Cl)c3)(C(F)(F)F)C2)cc1Br (centres unmarked) [1-347] | 100% | activity (mortality in %) [1]: 90%
COCC(=O)NCc1ccc(N2CCC(c3cc(Cl)cc(Cl)c3)(C(F)(F)F)C2)cc1Cl (centres unmarked) [1-40] | 100% | –
CC(=O)OCC(=O)NCc1ccc(N2CCC(c3cc(Cl)cc(Cl)c3)(C(F)(F)F)C2)cc1C(F)(F)F (centres unmarked) [1-188] | 100% | –
O=C(NCc1ccc(N2CCC(c3cc(Cl)cc(Cl)c3)(C(F)(F)F)C2)cc1Cl)NC1CC1 (centres unmarked) [1-81] | 100% | –
C=CCS(=O)(=O)CC(=O)NCc1ccc(N2CCC(c3cc(Cl)cc(Cl)c3)(C(F)(F)F)C2)cc1C(F)(F)F (centres unmarked) [1-505] | 100% | –
CCOC(=O)NCc1ccc(N2CCC(c3cc(C(F)(F)F)cc(C(F)(F)F)c3)(C(F)(F)F)C2)cc1C(F)(F)F (centres unmarked) [1-299] | 100% | –
N#Cc1ccc(N2CCC(c3cc(Cl)c(Cl)c(Cl)c3)(C(F)(F)F)C2)cc1Cl (centres unmarked) [7-13] | 100% | –
CSCC(=O)NCc1ccc(N2CCC(c3cc(Cl)cc(Cl)c3)(C(F)(F)F)C2)cc1Cl (centres unmarked) [1-42] | 100% | –
O=C(CC(F)(F)F)NCc1ccc(N2CCC(c3cc(Cl)cc(Cl)c3)(C(F)(F)F)C2)cc1Cl (centres unmarked) [1-19] | 100% | –
NCc1cnc(N2CCC(c3cc(C(F)(F)F)cc(C(F)(F)F)c3)(C(F)(F)F)C2)nc1C(F)(F)F (centres unmarked) [3-146] | 100% | –
O=C(NCc1ccc(N2CCC(c3cc(Cl)cc(Cl)c3)(C(F)(F)F)C2)cc1Cl)C1CC1 (centres unmarked) [1-4] | 100% | –
O=C(NCc1ccc(N2CCC(c3cc(Cl)c(Cl)c(Cl)c3)(C(F)(F)F)C2)cc1Cl)C1CC1 (centres unmarked) [1-339] | 100% | –
CC(C)C(=O)NCc1ccc(N2CCC(c3cc(Cl)cc(Cl)c3)(C(F)(F)F)C2)cc1Cl (centres unmarked) [1-3] | 100% | –
O=C(NCc1ccc(N2CCC(c3cc(Cl)cc(Cl)c3)(C(F)(F)F)C2)cc1C(F)(F)F)NCC1CC1 (centres unmarked) [1-232] | 100% | –
O=C(CCCl)NCc1ccc(N2CCC(c3cc(C(F)(F)F)cc(C(F)(F)F)c3)(C(F)(F)F)C2)cc1C(F)(F)F (centres unmarked) [1-297] | 100% | activity (mortality in %) [1]: 90%
O=C(NCc1ccc(N2CCC(c3cc(Cl)cc(C(F)(F)F)c3)(C(F)(F)F)C2)cc1C(F)(F)F)C1CC1 (centres unmarked) [1-357] | 100% | –
O=C(NCC(F)(F)F)c1sc(N2CCC(c3cc(C(F)(F)F)cc(C(F)(F)F)c3)(C(F)(F)F)C2)nc1C(F)(F)F (centres unmarked) [4-34] | 100% | –
CCC(=O)NC1CCc2cc(N3CCC(c4cc(Cl)cc(Cl)c4)(C(F)(F)F)C3)ccc21 (centres unmarked) [6-4] | 100% | –
